Results: patent US5877175A, “Pharmaceutical compositions” (KNOLL Aktiengesellschaft, priority 1995, dated 1999)

Experiments:
[1] = system: myoclonic seizures induced in mice by the administration of bicuculline; test: BICM test: antagonism of myoclonic seizures induced in mice by bicuculline; assay type: in vivo; conditions: female mice, 1 h before (+)-bicuculline 0.55 mg/kg i.v.; for ED50: Mus musculus, oral, dose inhibiting seizures in 50% of the animals; for % protection from bicuculline-induced seizures: figure in brackets, 100 mg/kg (po)
Text: The ability of the compounds to antagonise the myoclonic seizures induced in mice by the administration of bicuculline was observed. Hereinafter, this test is referred to as "BICM".
In the BICM experiments groups of female mice in the weight range 25 to 30 grammes had free access to food and water until one hour before administration of the compound to be tested. The compound to be tested was orally administered at one or more doses in 1% aqueous methylcellulose solution. One hour later (+)-bicuculline at a dose of 0.55 mg/kg was administered intravenously into a tail vein. Such a dose of (+)-bicuculline would generally be expected to induce a seizure in the mice.
During the following two minutes the animals were observed and the percentage of animals in which seizures had been inhibited was recorded. Thus, the greater the anticonvulsant activity of the compound, the higher was the percentage recorded in the BICM test.
A value for the dose inhibiting the seizures in 50% of the animals (ED50) was calculated from the regression straight line plot of the percentage of animals in which seizures were inhibited against the dose of compound.

[2] = system: seizures in mice induced by a maximal electroshock; test: MESM test: inhibition of seizures in mice induced by a maximal electroshock; assay type: in vivo; conditions: male mice, 1 h before electroshock (99 mA, 50 Hz, 1.0 second); for ED50: Mus musculus, oral, dose inhibiting seizures in 50% of the mice; for % protection from MES-induced seizure: figure in brackets, 100 mg/kg (po)
Experimental: The ability of the compounds to inhibit seizures in mice induced by a maximal electroshock was observed. Hereinafter, this test is referred to as `MESM`.
In the MESM experiments, groups of male mice in the weight range 25 to 30 grammes had free access to food and water until the start of the experiment. The mice were divided into two groups, a control group and a test group to which a compound of formula I or II would be administered. The control group received an oral dose of 10 ml/kg of a vehicle of 1% aqueous methyl cellulose solution. […] One hour after administration of all drugs an electroshock of duration 1.0 second was administered to all the mice in both groups through ear clip electrodes moistened with saline. […] Such a shock would generally be expected to induce a seizure in the mice.
The greater the anticonvulsant activity of the compound of formula I or II, the higher was the percentage recorded in the MESM test.
If results at more than one dose were available, then a value for the dose inhibiting seizures in 50% of the mice (ED50) was calculated from the regression straight line plot of the percentage of mice in which seizures were inhibited against the dose of the compound of formula I or II administered.

SMILES | ED50 [1] | % protection from MES-induced seizure [2] | also measured
CC(C)(C)c1nccc(-c2nn(-c3ccc(F)cc3)ccc2=O)n1 [Example 1, 3-(2-Tert-butylpyrimidin-4-yl)-1-(4-fluorophenyl)pyridazin-4(1H)-one] | 4.7 mg/kg | – | –
CC(C)c1nccc(-c2nn(-c3ccc(F)cc3)ccc2=O)n1 [Example 2, 3-(2-isopropylpyrimidin-4-yl)-1-(4-fluorophenyl)pyridazin-4(1H)-one] | 4.6 mg/kg | – | ED50 [2]: 83.4 mg/kg
O=c1ccn(-c2ccc(F)cc2)nc1-c1ccnc(-c2ccccc2)n1 [Example 3, 3-(2-phenylpyrimidin-4-yl)-1-(4-fluorophenyl)pyridazin-4(1H)-one] | – | 50% | –
O=c1ccn(-c2ccc(Cl)cc2Cl)nc1-c1ccncn1 [Example 4, 3-(pyrimidin-4-yl)-1-(2,4-dichlorophenyl)pyridazin-4(1H)-one] | 158 mg/kg | – | ED50 [2]: 73.6 mg/kg
CC(C)c1nccc(-c2nn(-c3ccc(Cl)cc3)ccc2=O)n1 [Example 5, 3-(2-isopropylpyrimidin-4-yl)-1-(4-chlorophenyl)pyridazin-4(1H)-one] | 11.8 mg/kg | 50% | –
O=c1ccn(-c2ccc(Cl)cc2)nc1-c1ccnc(C2CC2)n1 [Example 6, 3-(2-cyclopropylpyrimidin-4-yl)-1-(4-chlorophenyl)pyridazin-4(1H)-one] | – | – | % protection from bicuculline-induced seizures [1]: 60%
O=c1ccn(-c2ccc(F)cc2)nc1-c1ccnc(C2CCCCC2)n1 [Example 7, 3-(2-cyclohexylpyrimidin-4-yl)-1-(4-fluorophenyl)pyridazin-4(1H)-one] | – | – | % protection from bicuculline-induced seizures [1]: 70%
O=c1ccn(-c2ccc(Cl)cc2)nc1-c1ccnc(C2CCCCC2)n1 [Example 8, 3-(2-cyclohexylpyrimidin-4-yl)-1-(4-chlorophenyl)pyridazin-4(1H)-one] | 12.9 mg/kg | – | –
CCCc1nccc(-c2nn(-c3ccc(F)cc3)ccc2=O)n1 [Example 9, 3-(2-propylpyrimidin-4-yl)-1-(4-fluorophenyl)pyridazin-4(1H)-one] | – | 50% | –
